In PMC5941726, “Evaluating Hepatobiliary Transport with ^18F-Labeled Bile Acids: The Effect of Radiolabel Position and Bile Acid Structure on Radiosynthesis and In Vitro and In Vivo Performance” (Contrast Media & Molecular Imaging, 2018):
Several values for one entry are separate records, joined by “and”; a condition that tells them apart may be missing. Identical values can stand only once. Like-named read-outs stand apart in the source and are kept apart here.

What was measured:
[1] = target: T1, BSEP (Homo sapiens, UniProt O95342); assay: Inhibition of [^3H]TC uptake in BSEP membrane vesicles (efflux assay)
T1 sequence (O95342 whole entry, species assumed): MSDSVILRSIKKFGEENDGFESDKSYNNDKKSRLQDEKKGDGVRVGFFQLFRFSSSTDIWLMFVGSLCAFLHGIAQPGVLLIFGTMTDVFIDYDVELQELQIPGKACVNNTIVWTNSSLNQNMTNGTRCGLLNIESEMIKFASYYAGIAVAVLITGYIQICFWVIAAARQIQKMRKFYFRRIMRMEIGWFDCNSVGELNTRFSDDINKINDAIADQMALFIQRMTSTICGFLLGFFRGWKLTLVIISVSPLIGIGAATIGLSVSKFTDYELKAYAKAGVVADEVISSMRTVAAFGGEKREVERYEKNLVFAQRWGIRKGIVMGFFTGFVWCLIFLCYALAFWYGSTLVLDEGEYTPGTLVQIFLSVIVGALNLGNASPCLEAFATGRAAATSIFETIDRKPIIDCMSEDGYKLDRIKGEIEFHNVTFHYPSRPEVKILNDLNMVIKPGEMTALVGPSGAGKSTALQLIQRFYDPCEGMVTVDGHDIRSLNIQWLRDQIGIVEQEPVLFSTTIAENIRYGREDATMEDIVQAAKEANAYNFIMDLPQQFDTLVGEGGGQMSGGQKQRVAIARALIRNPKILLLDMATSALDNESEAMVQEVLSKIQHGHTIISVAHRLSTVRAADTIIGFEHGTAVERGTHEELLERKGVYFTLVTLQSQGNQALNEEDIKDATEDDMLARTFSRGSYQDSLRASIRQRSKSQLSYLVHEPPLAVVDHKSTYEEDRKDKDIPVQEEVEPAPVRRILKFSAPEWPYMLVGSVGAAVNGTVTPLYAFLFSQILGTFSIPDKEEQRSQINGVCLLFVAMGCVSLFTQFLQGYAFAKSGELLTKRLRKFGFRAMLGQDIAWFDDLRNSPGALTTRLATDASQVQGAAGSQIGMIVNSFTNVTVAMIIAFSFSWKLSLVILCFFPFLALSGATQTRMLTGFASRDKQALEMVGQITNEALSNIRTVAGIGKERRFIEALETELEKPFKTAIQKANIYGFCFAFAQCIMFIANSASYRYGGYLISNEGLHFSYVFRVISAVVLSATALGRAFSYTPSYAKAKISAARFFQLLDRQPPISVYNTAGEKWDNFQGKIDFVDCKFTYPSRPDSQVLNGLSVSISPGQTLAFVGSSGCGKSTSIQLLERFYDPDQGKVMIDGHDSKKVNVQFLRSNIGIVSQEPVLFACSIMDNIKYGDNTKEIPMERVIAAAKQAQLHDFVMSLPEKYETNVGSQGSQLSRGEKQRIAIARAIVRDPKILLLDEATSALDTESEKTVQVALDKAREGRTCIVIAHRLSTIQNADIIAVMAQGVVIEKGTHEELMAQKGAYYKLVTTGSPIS
Method: All dosing was performed in triplicate. The plates were suspended in a 37°C water bath 1 minute before the incubation. Incubation was started by adding 10 μL of the ATP solution or buffer solution (negative control). Each well contained a final volume of 30 μL and the plates were incubated for 10 minutes at 37°C.
The contents of each well were pipetted in a glass fiber filter plate (Multiscreen HTS plates; Merck Millipore) and washed 3 times with 200 μL ice-cold buffer solution. Finally, 100 μL 0.1 M NaOH was added: lysis of the vesicles took place for 10 minutes at room temperature. An aliquot was used for liquid scintillation counting.

[2] = target: T2, NTCP (Homo sapiens, UniProt Q14973); assay: Inhibition of [^3H]taurocholate uptake in CHO cells expressing NTCP (competition assay); format: cell-based; settings: for Ki: 1 μM [^3H]TC, 15 min 37°C, Cheng-Prusoff from IC50 and Km, mean ± SD n = 3
T2 construct: host or cells: Chinese Hamster Ovary (CHO) cells
T2 sequence (Q14973 1-349): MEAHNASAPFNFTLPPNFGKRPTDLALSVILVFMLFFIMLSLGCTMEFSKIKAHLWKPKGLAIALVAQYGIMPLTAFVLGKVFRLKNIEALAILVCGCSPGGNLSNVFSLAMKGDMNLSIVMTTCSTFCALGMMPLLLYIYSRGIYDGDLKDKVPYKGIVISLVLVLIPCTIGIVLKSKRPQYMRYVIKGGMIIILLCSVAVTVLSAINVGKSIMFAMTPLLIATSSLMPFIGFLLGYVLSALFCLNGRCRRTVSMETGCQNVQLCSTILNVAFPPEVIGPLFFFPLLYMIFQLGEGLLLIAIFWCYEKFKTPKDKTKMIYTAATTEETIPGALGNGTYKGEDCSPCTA
From the text: Maintenance of these cell cultures was described earlier.

[3] = target: T3, OATP1B1 (Homo sapiens, UniProt Q9Y6L6)
T3 sequence (Q9Y6L6 1-691): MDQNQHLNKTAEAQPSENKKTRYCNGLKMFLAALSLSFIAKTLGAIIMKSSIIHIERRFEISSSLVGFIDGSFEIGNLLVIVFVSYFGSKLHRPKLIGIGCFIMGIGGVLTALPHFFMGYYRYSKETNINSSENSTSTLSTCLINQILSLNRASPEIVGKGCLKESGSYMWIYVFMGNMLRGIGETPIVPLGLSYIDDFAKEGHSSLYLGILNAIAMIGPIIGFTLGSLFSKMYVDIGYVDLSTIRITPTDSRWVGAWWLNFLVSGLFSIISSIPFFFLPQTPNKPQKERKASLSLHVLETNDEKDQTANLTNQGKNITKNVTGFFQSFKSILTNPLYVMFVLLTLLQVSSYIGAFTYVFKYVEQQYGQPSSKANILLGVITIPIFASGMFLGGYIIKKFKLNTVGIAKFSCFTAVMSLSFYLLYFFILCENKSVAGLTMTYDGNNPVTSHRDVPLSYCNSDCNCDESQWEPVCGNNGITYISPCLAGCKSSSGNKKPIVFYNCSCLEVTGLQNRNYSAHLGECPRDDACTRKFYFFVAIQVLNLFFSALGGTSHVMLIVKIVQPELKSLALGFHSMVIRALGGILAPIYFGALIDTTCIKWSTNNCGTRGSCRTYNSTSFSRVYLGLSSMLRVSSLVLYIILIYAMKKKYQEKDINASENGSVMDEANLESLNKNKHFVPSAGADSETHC
Method: Chinese Hamster Ovary (CHO) and Human Embryonic Kidney (HEK) cells expressing NTCP and OATP1B1, respectively (Solvo Biotechnologies), were used.
Cells were seeded in 24-well plates at 400,000 cells/well. […] All dosing solutions were formulated in the washing buffer and dosing was executed in triplicate. The incubation was stopped by placing the plates on ice and adding 1 mL ice-cold 1% BSA HBSS-solution. The supernatant was aspirated and the cells were washed twice with 2 mL ice-cold HBSS-solution. NaOH (250 μl, 0.1 M) was added to lyse the cells and the plates were shaken (15 minutes, 37°C). Aliquots of this lysate were subjected to liquid scintillation counting (TriCarb 2900 TR; Perkin Elmer) and protein determination with a BCA-assay (ThermoFisher Scientific).

[4] = tested on: wild-type FVB-mice; assay: Dynamic PET/CT imaging of hepatobiliary transport in wild-type FVB-mice; format: in vivo, mouse; settings: wild-type mice; for Time-to-peak liver / AUC GBI (gallbladder and intestines) / AUC liver (time-activity curve) / Max% ID GBI (gallbladder and intestines) / Max% ID liver: 9 MBq i.v., 1 hour PET-scan; for Time-to-peak liver / AUC GBI (gallbladder and intestines) / AUC liver (time-activity curve) / Max% ID GBI (gallbladder and intestines) / Max% ID liver / Biliary clearance: n = 3; for AUC GBI (gallbladder and intestines) / AUC liver (time-activity curve) / Max% ID GBI (gallbladder and intestines) / Max% ID liver: normalized for 20 g mouse; for Organ uptake after intravenous injection: PET; for Injected activity found in gallbladder and intestines after 1 hour: i.v.; for Biliary clearance: cumulative amount in gallbladder & intestines / AUC blood concentration 0-60 min
Method: The in vivo transport characteristics of the ^18F labeled bile acids were evaluated in wild-type FVB-mice (female, 5 w). The tracer described earlier, 3β-[^18F]FCA, was also included as a reference standard. Imaging was performed with a PET/CT (FLEX Triumph II small animal PET/CT-scanner; axial field of view: 7.5 cm; 1.3 mm spatial resolution; TriFoil Imaging). For each tracer, three animals were used. The animals were housed and handled in accordance with the European Ethics Committee guidelines and the experiments were approved by the Animal Experimental Ethical Committee of Ghent University (ECD 15/69).
Food and water were provided ad libitum, but the animals were fasted overnight before a PET/CT-scan. They were anesthetized with 1.5 v : v% isoflurane in O2 and placed on a heated bed. To allow injection of the tracer, a polyethylene intravenous line was inserted in the lateral tail vein and fixed. After the animals were transferred to the scanner animal bed, a 1 hour PET-scan was started and 9 MBq tracer was injected directly after starting the scan. Following this PET-scan, 9 MBq [^18F]FDG was injected and twenty minutes later, a second PET-scan with a 20-minute acquisition time was started.
All PET-scans were obtained in list-mode and were iteratively reconstructed (50 iterations). The 1-hour scan was reconstructed in the following frames: 8 × 15 s; 16 × 30 s; 10 × 60 s; 20 × 120 s. For presentation purposes, Maximum Intensity Projection PET/CT images were generated in Amide software. The data were analyzed using Pmod software v3.405 (PMOD Technologies): Regions Of Interest (ROIs) were drawn manually over the liver, gallbladder, and intestines. On the static [^18F]FDG scan, the left ventricle was delineated and this ROI was pasted on the dynamic scan to obtain an image-derived arterial blood concentration. The uptake of radioactivity in liver, gallbladder, and intestines was expressed as a percentage of the injected dose (% ID) and normalized for the weight of a 20 g mouse. The % ID in these organs was monitored in function of time to obtain time-activity curves (TACs). Biliary clearance of the tracers was determined with equation 2 from Ghibellini et al. [14](2) Biliary clearance=cumulative amount of tracer in gallbladder&intestines/AUC blood concentration0→60 min.
The Area Under the Curve (AUC), % ID, and time-to-peak values of the TACs were determined in GraphPad Prism v3.00 Software. The obtained parameters of the different ^18F labeled bile acids were compared to 3β-[^18F]FCA-values in SPSS Statistics 23 Software. Differences between two groups were analyzed with the nonparametric Mann–Whitney U test. A p value ≤ 0.05 was considered significant.

[5] = target: T2, NTCP; set-up: method as in PMID 28273180; settings: Ki calculated from IC50-values extracted from literature; cited from earlier work
[6] = target: T3, OATP1B1; set-up: host or cells: Human Embryonic Kidney (HEK) cells; method as in PMID 28273180; settings: Ki calculated from IC50-values extracted from literature; cited from earlier work
[7] = target: T1, BSEP; set-up: purchased Pharmtox; method as in PMID 28273180; settings: Ki calculated from IC50-values extracted from literature; cited from earlier work
[8] = LogD determination of the tracers; format: physicochemical; settings: n = 3, mean ± SD; read-out: LogD
Method: (§1) The logD-value, stability (in formulation for use and mouse serum), and identity of the tracer were assessed as described earlier. Radiochemical purity and percentage ^18F-labeling of precursor were determined by radio-TLC (silica gel TLC; with 10% MeOH in CH2Cl2 and 4 : 1 AcN : H2O, resp.).

[9] = Stability of the tracer in mouse serum; format: in vitro ADME; settings: mouse serum
Method: as §1

[10] = Stability of the tracer in formulation for use; format: physicochemical; settings: formulation for use (phosphate buffered saline)
Method: as §1

## C[C@H](CCC(=O)NCC(=O)O)[C@H]1CC[C@H]2[C@@H]3[C@H](O)C[C@@H]4C[C@@H](F)CC[C@]4(C)[C@H]3C[C@H](O)[C@]12C [3βFGCA, 3β F glycocholic acid]
[1]
  Ki: 87.4 ± 14.6 µM
[2]
  Ki: 1.09 ± 0.34 µM
[3]
  Ki: 4.24 ± 0.16 µM

## C[C@H](CCC(=O)O)[C@H]1CC[C@H]2[C@@H]3[C@H](O)C[C@@H]4C[C@H](O)CC[C@]4(C)[C@H]3C[C@@H](F)[C@]12C [12βFCA]
[1]; read-out: Ki for BSEP, BSEP membrane vesicles, 0.65 μM [^3H]TC, 10 min 37°C, Cheng-Prusoff from IC50 and Km, mean ± SD n = 3
  Ki: 367 ± 38.1 µM
[2]
  Ki: 30.1 ± 9.4 µM
[3]
  Ki: 4.56 ± 0.25 µM

## C[C@H](CCC(=O)O)[C@H]1CC[C@H]2[C@@H]3[C@H](O)C[C@@H]4C[C@@H]([18F])CC[C@]4(C)[C@H]3C[C@H](O)[C@]12C [3β-[^18F]FCA, 3β-[^18F]fluorocholic acid, reference compound]
[4]
  Time-to-peak liver: 5.33 ± 0.24 min
  AUC GBI (gallbladder and intestines): 3499 ± 340 % ID·min
  AUC liver (time-activity curve): 1785 ± 194 % ID·min
  Max% ID GBI (gallbladder and intestines): 83.44 ± 9.27%
  Max% ID liver: 63.80 ± 2.61%
  Organ uptake after intravenous injection: exclusive hepatic uptake
  Injected activity found in gallbladder and intestines after 1 hour: approx. 80%
  Biliary clearance: 0.46 ± 0.08 mL/min

## C[C@H](CCC(=O)O)[C@H]1CC[C@H]2[C@@H]3[C@H](O)C[C@@H]4C[C@@H](F)CC[C@]4(C)[C@H]3C[C@H](O)[C@]12C [3βFCA]
[5]
  Ki: 6.18 ± 0.59 µM
[6]
  Ki: 9.67 ± 0.83 µM
[7]
  Ki: 216 ± 53 µM

## C[C@H](CCC(=O)O)[C@H]1CC[C@H]2[C@@H]3[C@H](O)C[C@@H]4C[C@H]([18F])CC[C@]4(C)[C@H]3C[C@H](O)[C@]12C [3α-[^18F]FCA, 3α-[^18F]fluorocholic acid]
[4]
  Time-to-peak liver: 3.33 ± 0.62 min and 3.33 ± 0.62^∗ min
  AUC GBI (gallbladder and intestines): 4184 ± 109^∗ % ID·min
  AUC liver (time-activity curve): 1065 ± 171^∗ % ID·min
  Max% ID GBI (gallbladder and intestines): 88.70 ± 2.38%
  Max% ID liver: 58.58 ± 3.19%
  Organ uptake after intravenous injection: exclusive hepatic uptake
  Injected activity found in gallbladder and intestines after 1 hour: approx. 80%
  Biliary clearance: 0.49 ± 0.10 mL/min
[8]
  logD: 0.92 ± 0.17
[9]
  Stability in mouse serum: stable
[10]
  Stability in its formulation: stable

## C[C@H](CCC(=O)NCCS(=O)(=O)O)[C@H]1CC[C@H]2[C@@H]3[C@H](O)C[C@@H]4C[C@H](O)CC[C@]4(C)[C@H]3C[C@H](O)[C@]12C [[^3H]TC, [^3H]taurocholate, reference compound]
[2]; 0–150 μM, 10 min 37°C
  Vmax of substrate uptake: 200.4 ± 9.77 pmol/min·mg protein
[2]; 0–150 μM, 10 min 37°C, read-out: Km (Michaelis-Menten) of substrate uptake
  Km: 15.3 ± 2.46 µM
